Format in all cases: in vivo
Data set [1] is described as follows: LD50 (mouse), acute toxicity. The note with it: in vivo, mouse.
Another data set has as its system mouse. The data set can be described thus: LD50 (mouse), acute toxicity. The note with it: in words.
A further data set has as its system rats. Put plainly: Turning rat test (rotation in rats with unilateral 6-OHDA lesion of the medial forebrain bundle). The note with it: for minimal effective dose: Rattus norvegicus, ip, 1 h, i.p., active = more than 100 turns/hour, 5 rats per dose, read-out: Turning rat test minimum active dosage. The procedure: Female rats weighing 150 g are anaesthetised with pentobarbital (50 mg kg^-1 i.p.) and fixed in a stereotaxic apparatus (David Kopf). A unilateral (right side) injection into the MFB (medial forebrain bundle) of 6-OHDA (6-hydroxy-dopamine), 3 μg as base, dissolved in 4 μl of Ringer solution containing 0.02% ascorbic acid, is carried out through a stainless-steel cannula (diameter 0.3 mm) connected to a microsyringe. The liquid is injected at a speed of 1 μl min^-1 by means of a high precision infusion pump. In order to reach the MFB (medial forebrain bundle), the following coordinates are used: A=+3.8 mm, L (right)=0.9 mm, V=-3 mm according to the Atlas of Konig and Klippel.
After 3 weeks recovery period, the operated rats are injected with apomorphine, 1 mg kg^1- i.p. Those animals showing a regular contralateral (i.e., away from the lesioned side) turning, recorded automatically during 1 hour in a rotometer, are selected for further experiments. At least one week is allowed between each injection of screening compounds.
Drugs which induce rotation are dopamine receptor agonists. If the turning is contralateral (i.e., away from the lesioned side) the drugs are classified as "apomorphine-like", which indicates a direct dopamine-receptor stimulation (postsynaptic). The denervated striatum is more sensitive to dopamine receptor agonistes than the intact one. Agonists therefore affect the denervated striatum more than the intact one. This inbalance results in contralateral turning (rotation).
If the rotation is ipsilateral (i.e., towards the lesioned side), the drugs are classified as "amphetamine-like", which means that they release and/or block the reuptake of dopamine (presynaptic) from nerve terminals on the intact side, whereas they have little if any effect on the striatum with denervated dopamine neurons. The result of this inbalance is an ipsilateral turning.
The total number of ipsilateral or contralateral turns (full rotation around the vertical axes of the body) made by each rat, is automatically recorded over the time (usually 1 hour). 5 rats are injected for each dose and the mean of total turns per hour is determined.
A compound is said active, if it produces more than 100 turns/hour. If a drug induces rotation, but less than 100 turns/hour, it is indicated as slightly active. […] The results are expressed as: […]
Minimal effective dose--if the drug is active

Structures can show the parent of a compound that is named as a salt.

The LD50 is the dose at which mortality reaches 50%. Read a high LD50 as lower toxicity.

Turning to `CCn1cc(C(=O)O)c(=O)cc1-c1ccc2ccccc2c1` [1-ethyl-1,4-dihydro-6-(2-naphthyl)-4-oxonicotinic acid], in data set [1] (po), the LD50 was 170 mg/kg. In addition, the “LD50 compared with d-amphetamine and d-methamphetamine” value with mouse (versus d-amphetamine and d-methamphetamine) is “substantially lower LD50”. Moreover, the “LD50 compared with nomifensin” value in the data set with mouse (versus nomifensin) is reported as “about the same LD50”. Also, the minimal effective dose in the data set with rats amounted to 1 mg/kg. The “strength of action compared with d-amphetamine and d-methamphetamine” value in the data set with rats (in words, versus d-amphetamine and d-methamphetamine, see Table I) is “about the same strength of action”. For the same molecule, the “action compared with nomifensin” value in the data set with rats (in words, versus nomifensin, see Table I) was “substantially superior to nomifensin”.
`CN1Cc2c(N)cccc2C(c2ccccc2)C1` (stereo not drawn) [Nomifensin, 8-amino-1,2,3,4-tetrahydro-2-methyl-4-phenylisoquinoline] returned an LD50 in data set [1] (po) of 300 to 600 mg/kg. For the same molecule, in the data set on rats, the minimal effective dose stood at 3 mg/kg.
As for `C[C@H](N)Cc1ccccc1` [d-Amphetamine . 1/2 H2 SO4], the LD50 in data set [1] (iv) worked out at 14 mg/kg; in data set [1] (po) it was 35 mg/kg; in data set [1] (sc), 22 mg/kg. Also, in the data set on rats, the minimal effective dose came out at 1 mg/kg.
Consider `CN[C@@H](C)Cc1ccccc1` [d-Methamphetamine . HCl], for which the values for the LD50 in data set [1] (iv) and in data set [1] (sc) were 9.5 mg/kg and 14 mg/kg, respectively. For the same molecule, the minimal effective dose in the data set with rats worked out at 1 mg/kg.

The record behind these values is patent publication US4314063A, “1-Ethyl-1,4,5,6-tetrahydro-6-(2-naphthyl)-4-oxo-nicotinic acid and lower alkyl esters thereof” (Hoffmann-La Roche Inc., priority 1981, dated 1982).
